# Measured values: ChEMBL document CHEMBL1201862, “PubChem BioAssay data set” (2004)
#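 Cells were grown in 96-well plates and exposed to each compound for 48 hours at five concentrations; endpoints were interpolated linearly between bracketing concentrations, or set to the highest concentration if not reached. GI50 marks 50% less growth.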 The source made the active and inactive calls. No stated cut-off is given here; in the data, active = GI50 up to about 1.1 µM and inactive = higher.
# What was measured:
# Assay in all cases: NCI-60 cell line screen, 48 h
# SNB-75 = system: SNB-75
# SF-295 = system: SF-295
# DLD-1 = system: DLD-1
# UO-31 = system: UO-31
# HCT-15 = system: HCT-15
# Malme-3M = system: Malme-3M
# HT-29 = system: HT-29
# RPMI-8226 = system: RPMI-8226
# SF-268 = system: SF-268
# CCRF-CEM = system: CCRF-CEM
# BT-549 = system: BT-549
# T47D = system: T47D
# UACC-62 = system: UACC-62
# OVCAR-5 = system: OVCAR-5
# NCI-H226 = system: NCI-H226
# HCT-116 = system: HCT-116
# LOX IMVI = system: LOX IMVI
# HOP-18 = system: HOP-18
# UACC-257 = system: UACC-257
# OVCAR-8 = system: OVCAR-8
# ACHN = system: ACHN
# MDA-MB-231 = system: MDA-MB-231
# A498 = system: A498
# NCI-H460 = system: NCI-H460
# M14 = system: M14
# SK-MEL-2 = system: SK-MEL-2
# RXF 393 = system: RXF 393
# SR = system: SR
# COLO 205 = system: COLO 205
# MOLT-4 = system: MOLT-4
# Hs-578T = system: Hs-578T
# LXFL 529 = system: LXFL 529
# HCC 2998 = system: HCC 2998
# KM-20L2 = system: KM-20L2
# M19-MEL = system: M19-MEL
# MCF7 = system: MCF7
# NCI-H522 = system: NCI-H522
# A549 = system: A549
# K562 = system: K562
# IGROV-1 = system: IGROV-1
# KM12 = system: KM12
# SK-OV-3 = system: SK-OV-3
# SW-620 = system: SW-620
# 786-0 = system: 786-0
# EKVX = system: EKVX
# SN12C = system: SN12C
# HL-60 = system: HL-60
# CAKI-1 = system: CAKI-1
# OVCAR-3 = system: OVCAR-3
# HOP-62 = system: HOP-62
# MDA-N = system: MDA-N
# NCI/ADR-RES = system: NCI/ADR-RES
# XF498 = system: XF498
# OVCAR-4 = system: OVCAR-4
# HOP-92 = system: HOP-92
# DMS-273 = system: DMS-273
# SF-539 = system: SF-539
# U-251 = system: U-251
# DU-145 = system: DU-145
# PC-3 = system: PC-3
# DMS-114 = system: DMS-114
# NCI-H23 = system: NCI-H23
# SK-MEL-28 = system: SK-MEL-28
# SNB-19 = system: SNB-19
# MDA-MB-435 = system: MDA-MB-435
# TK-10 = system: TK-10
# SNB-78 = system: SNB-78
# SK-MEL-5 = system: SK-MEL-5
# RXF 631 = system: RXF 631
smiles,measurement,setting,value
CC(C)CC(NC(=O)OC(C)(C)C)C(=O)Nc1ccc(Nc2nc(F)nc(-c3c4ccccc4cn3C)n2)cc1 (configuration not stated),GI50,SNB-75,47.1 µM (inactive)
same,GI50,SF-295,> 81.7 µM (inactive)
same,GI50,DLD-1,> 37.2 µM (inactive)
same,GI50,UO-31,44.9 µM (inactive)
same,GI50,HCT-15,> 68.9 µM
same,GI50,Malme-3M,> 100 µM (inactive)
same,GI50,HT-29,23.1 µM (inactive)
same,GI50,RPMI-8226,3.07 µM (inactive)
same,GI50,SF-268,> 100 µM (inactive)
same,GI50,CCRF-CEM,33.3 µM (inactive)
same,GI50,BT-549,> 100 µM (inactive)
same,GI50,T47D,40.4 µM (inactive)
same,GI50,UACC-62,> 100 µM (inactive)
same,GI50,OVCAR-5,> 100 µM (inactive)
same,GI50,NCI-H226,> 100 µM (inactive)
same,GI50,HCT-116,72.1 µM (inactive)
same,GI50,LOX IMVI,> 100 µM (inactive)
same,GI50,HOP-18,> 100 µM (inactive)
same,GI50,UACC-257,> 100 µM (inactive)
same,GI50,OVCAR-8,98.6 µM (inactive)
same,GI50,ACHN,62.7 µM (inactive)
same,GI50,MDA-MB-231,66.1 µM (inactive)
same,GI50,A498,98.6 µM (inactive)
same,GI50,NCI-H460,> 75 µM (inactive)
same,GI50,M14,> 100 µM (inactive)
same,GI50,SK-MEL-2,> 100 µM (inactive)
same,GI50,RXF 393,22.2 µM (inactive)
same,GI50,SR,53.6 µM (inactive)
same,GI50,COLO 205,18.6 µM (inactive)
same,GI50,MOLT-4,59.7 µM (inactive)
same,GI50,Hs-578T,40.3 µM (inactive)
same,GI50,LXFL 529,77.3 µM (inactive)
same,GI50,HCC 2998,15.8 µM (inactive)
same,GI50,KM-20L2,37.6 µM (inactive)
same,GI50,M19-MEL,97.9 µM (inactive)
same,GI50,MCF7,4.89 µM (inactive)
same,GI50,NCI-H522,75.3 µM (inactive)
same,GI50,A549,> 100 µM (inactive)
same,GI50,K562,62.2 µM (inactive)
same,GI50,IGROV-1,> 100 µM (inactive)
same,GI50,KM12,12.6 µM (inactive)
same,GI50,SK-OV-3,> 100 µM (inactive)
same,GI50,SW-620,> 36 µM (inactive)
same,GI50,786-0,> 100 µM (inactive)
same,GI50,EKVX,52.7 µM (inactive)
same,GI50,SN12C,> 100 µM (inactive)
same,GI50,HL-60,3.94 µM (inactive)
same,GI50,CAKI-1,> 100 µM (inactive)
same,GI50,OVCAR-3,22.5 µM (inactive)
same,GI50,HOP-62,12.7 µM (inactive)
same,GI50,MDA-N,> 100 µM (inactive)
same,GI50,NCI/ADR-RES,> 100 µM (inactive)
same,GI50,XF498,> 85.1 µM (inactive)
same,GI50,OVCAR-4,> 41.8 µM (inactive)
same,GI50,HOP-92,52.2 µM (inactive)
same,GI50,DMS-273,42.6 µM (inactive)
same,GI50,SF-539,> 93.3 µM (inactive)
same,GI50,U-251,43.9 µM (inactive)
same,GI50,DU-145,20.3 µM (inactive)
same,GI50,PC-3,35.1 µM (inactive)
same,GI50,DMS-114,21.8 µM (inactive)
same,GI50,NCI-H23,62.5 µM (inactive)
same,GI50,SK-MEL-28,> 100 µM (inactive)
same,GI50,SNB-19,> 86.1 µM (inactive)
same,GI50,MDA-MB-435,> 100 µM (inactive)
same,GI50,TK-10,> 92.7 µM (inactive)
same,GI50,SNB-78,14.7 µM (inactive)
same,GI50,SK-MEL-5,> 100 µM (inactive)
CC(C)N(C(=O)C12C3C4C1C1C2C3C41C(N)=O)C(C)C (configuration not stated),GI50,SF-295,> 100 µM (inactive)
same,GI50,UO-31,> 100 µM (inactive)
same,GI50,HCT-15,> 100 µM
same,GI50,Malme-3M,> 100 µM (inactive)
same,GI50,SF-268,> 100 µM (inactive)
same,GI50,CCRF-CEM,> 100 µM (inactive)
same,GI50,OVCAR-8,> 100 µM (inactive)
same,GI50,ACHN,> 100 µM (inactive)
same,GI50,A498,> 100 µM (inactive)
same,GI50,M14,> 100 µM (inactive)
same,GI50,SR,> 100 µM (inactive)
same,GI50,COLO 205,> 100 µM (inactive)
same,GI50,MOLT-4,> 100 µM (inactive)
same,GI50,LXFL 529,> 100 µM (inactive)
same,GI50,HCC 2998,> 100 µM (inactive)
same,GI50,KM-20L2,> 100 µM (inactive)
same,GI50,M19-MEL,> 100 µM (inactive)
same,GI50,NCI-H522,> 100 µM (inactive)
same,GI50,A549,> 100 µM (inactive)
same,GI50,K562,> 100 µM (inactive)
same,GI50,IGROV-1,> 100 µM (inactive)
same,GI50,SK-OV-3,> 100 µM (inactive)
same,GI50,RXF 631,> 100 µM (inactive)
same,GI50,SW-620,> 100 µM (inactive)
same,GI50,786-0,> 100 µM (inactive)
same,GI50,EKVX,> 100 µM (inactive)
same,GI50,SN12C,> 100 µM (inactive)
same,GI50,CAKI-1,> 100 µM (inactive)
same,GI50,OVCAR-3,> 100 µM (inactive)
same,GI50,HOP-62,> 100 µM (inactive)
same,GI50,HOP-92,> 100 µM (inactive)
same,GI50,DMS-273,> 100 µM (inactive)
same,GI50,SF-539,> 100 µM (inactive)
same,GI50,U-251,> 100 µM (inactive)
same,GI50,DMS-114,> 100 µM (inactive)
same,GI50,SNB-19,> 100 µM (inactive)
same,GI50,SNB-78,> 100 µM (inactive)
same,GI50,SK-MEL-5,> 100 µM (inactive)
COC(=O)C1c2cc3c(c(O)c2C(O)CC1(C)O)C(=O)c1c(O)cc2c(c1C3=O)OC1OC2(C)C(O)C(N(C)C)C1O (configuration not stated),GI50,SF-295,12.4 µM (inactive)
same,GI50,DLD-1,> 100 µM (inactive)
same,GI50,HCT-15,11.3 µM
same,GI50,RPMI-8226,10.9 µM (inactive)
same,GI50,CCRF-CEM,6.37 µM (inactive)
same,GI50,BT-549,4.9 µM (inactive)
same,GI50,T47D,1.71 µM (inactive)
same,GI50,HOP-18,> 100 µM (inactive)
same,GI50,OVCAR-8,11.7 µM (inactive)
same,GI50,MDA-MB-231,1.31 µM (inactive)
same,GI50,NCI-H460,> 100 µM (inactive)
same,GI50,SK-MEL-2,> 100 µM (inactive)
same,GI50,RXF 393,12.4 µM (inactive)
same,GI50,SR,8.49 µM (inactive)
same,GI50,MOLT-4,6.08 µM (inactive)
same,GI50,Hs-578T,1.43 µM (inactive)
same,GI50,LXFL 529,> 100 µM (inactive)
same,GI50,KM-20L2,> 100 µM (inactive)
same,GI50,M19-MEL,> 100 µM (inactive)
same,GI50,MCF7,1.35 µM (inactive)
same,GI50,K562,11.3 µM (inactive)
same,GI50,HL-60,12.6 µM (inactive)
same,GI50,CAKI-1,3.28 µM (inactive)
same,GI50,OVCAR-3,12.7 µM (inactive)
same,GI50,HOP-62,12.7 µM (inactive)
same,GI50,MDA-N,1.57 µM (inactive)
same,GI50,NCI/ADR-RES,1.64 µM (inactive)
same,GI50,XF498,> 100 µM (inactive)
same,GI50,OVCAR-4,12.9 µM (inactive)
same,GI50,HOP-92,26.8 µM (inactive)
same,GI50,DMS-273,> 100 µM (inactive)
same,GI50,DU-145,1.7 µM (inactive)
same,GI50,PC-3,1.2 µM (inactive)
same,GI50,DMS-114,> 100 µM (inactive)
same,GI50,SNB-19,7.06 µM (inactive)
same,GI50,MDA-MB-435,1.75 µM (inactive)
same,GI50,SNB-78,> 100 µM (inactive)
O=C1C2c3[nH]c4ccccc4c3[C@@H]3CCCCC3C2C(=O)N1c1ccccc1 (some centres not stated),GI50,SNB-75,27.2 µM (inactive)
same,GI50,SF-295,21.1 µM (inactive)
same,GI50,DLD-1,26.2 µM (inactive)
same,GI50,UO-31,17.3 µM (inactive)
same,GI50,HCT-15,25.7 µM
same,GI50,Malme-3M,20.6 µM (inactive)
same,GI50,HT-29,19.7 µM (inactive)
same,GI50,RPMI-8226,17.5 µM (inactive)
same,GI50,SF-268,18.7 µM (inactive)
same,GI50,CCRF-CEM,26.5 µM (inactive)
same,GI50,UACC-62,16.6 µM (inactive)
same,GI50,OVCAR-5,16.8 µM (inactive)
same,GI50,NCI-H226,21 µM (inactive)
same,GI50,LOX IMVI,15.8 µM (inactive)
same,GI50,OVCAR-8,26.4 µM (inactive)
same,GI50,ACHN,25.4 µM (inactive)
same,GI50,A498,28.6 µM (inactive)
same,GI50,NCI-H460,17.8 µM (inactive)
same,GI50,M14,15 µM (inactive)
same,GI50,RXF 393,16.7 µM (inactive)
same,GI50,SR,19.8 µM (inactive)
same,GI50,COLO 205,19.1 µM (inactive)
same,GI50,MOLT-4,19 µM (inactive)
same,GI50,LXFL 529,17.6 µM (inactive)
same,GI50,HCC 2998,19.3 µM (inactive)
same,GI50,M19-MEL,19.1 µM (inactive)
same,GI50,A549,28.8 µM (inactive)
same,GI50,K562,20.9 µM (inactive)
same,GI50,IGROV-1,23 µM (inactive)
same,GI50,KM12,19.2 µM (inactive)
same,GI50,SK-OV-3,26.9 µM (inactive)
same,GI50,RXF 631,14.8 µM (inactive)
same,GI50,SW-620,19.1 µM (inactive)
same,GI50,786-0,18.9 µM (inactive)
same,GI50,EKVX,15.3 µM (inactive)
same,GI50,SN12C,17.8 µM (inactive)
same,GI50,HL-60,20.3 µM (inactive)
same,GI50,OVCAR-3,15.4 µM (inactive)
same,GI50,OVCAR-4,20.5 µM (inactive)
same,GI50,DMS-273,17.3 µM (inactive)
same,GI50,SF-539,> 10 µM (inactive)
same,GI50,U-251,14.4 µM (inactive)
same,GI50,DMS-114,22.1 µM (inactive)
same,GI50,NCI-H23,19.5 µM (inactive)
same,GI50,SK-MEL-28,18.2 µM (inactive)
same,GI50,SNB-19,36.1 µM (inactive)
same,GI50,TK-10,28 µM (inactive)
same,GI50,SNB-78,19.3 µM (inactive)
same,GI50,SK-MEL-5,17.9 µM (inactive)
